Measured values published in US20250206714A1, “COMPOSITIONS AND METHODS FOR TREATMENT OF INFLAMMATORY DISEASES” (Invea Therapeutics, Inc., priority 2022, published 2025).

How the values were obtained:
[1] = Solubility analysis (kinetic method, PBS pH 7.4); type: physicochemical; settings: phosphate buffered saline, aqueous buffer, kinetic from dmso stock, phosphate buffer saline (pH-7.4)
Procedure: Seven level calibration standards (i.e., 1, 5, 10, 50, 100, 200 and 300 μM) of the test compound were prepared from 20 mM primary stock solution in DMSO. An aliquot of 198 μL of PBS (pH-7.4) was dispensed into duplicate wells of a multiscreen solubility filter plate. Subsequently, 2 μL of test compound solution from 20 mM primary stock solution was added to give a final concentration of 200 μM, the plate was covered and shaken at 150 rotations per minute for 90 minutes. At the end of 90 minutes, samples were filtered using MultiScreen HTS vacuum Manifold assembly and the filtrates were collected into the acceptor plate. An aliquot of 150 μL of filtrate from the above 96-well acceptor plate were transferred into HPLC vials and analyzed by HPLC-PDA. Solubility was determined by comparing the absorbance of test/reference compound against the respective DMSO calibration curve.

[2] = in vitro; settings: for % rem @ 5 min / % rem @ 15 min / % rem @ 30 min / % rem @ 45 min: 1 µM; for % rem @ 5 min / % rem @ 15 min / % rem @ 30 min / % rem @ 45 min / half-life at 1 µM / microsomal CLint at 1 μM: pH 7.4; for half-life at 1 µM / microsomal CLint at 1 μM: microsomes
Procedure: All the tubes were pre-incubated at 37 t 1° C. for 5 min in a shaking water bath. Tubes of NADPH solution (10 mM) were similarly pre-incubated in similar conditions. After pre-incubation, 20 μL NADPH solution (10 mM) was added to the T0, T5, T15, T30, and T45 tubes, and 20 μL of buffer was added to the TControl tube which makes the final concentration to 1 μM respectively. T0 was immediately quenched with 200 μL of quenching solution containing warfarin as internal standard (IS). Similarly, at the end of the incubation period (5, 15, 30, and 45 minutes) of respective tubes, 200 μL of quenching solution containing warfarin as internal standard (IS) was added to each tube to stop the reaction. Resulting samples were centrifuged at 3220 g (relative centrifugal force) for 20 min. Supernatant (200 μL) from each reaction tube was taken for LC-MS/MS analysis.

[3] = target: T1, CYP 2C9 (Homo sapiens, UniProt P11712); assay: Metabolic stability in human liver microsomes with CYP 2C9 inhibitor Sulfaphenazole; type: in vitro ADME; settings: 1 μM + Sulfaphenazole (20 μM)
T1 construct: The experiment was conducted in human liver microsomes; from tissue; host or cells: human liver microsomes
T1 sequence (P11712 whole entry): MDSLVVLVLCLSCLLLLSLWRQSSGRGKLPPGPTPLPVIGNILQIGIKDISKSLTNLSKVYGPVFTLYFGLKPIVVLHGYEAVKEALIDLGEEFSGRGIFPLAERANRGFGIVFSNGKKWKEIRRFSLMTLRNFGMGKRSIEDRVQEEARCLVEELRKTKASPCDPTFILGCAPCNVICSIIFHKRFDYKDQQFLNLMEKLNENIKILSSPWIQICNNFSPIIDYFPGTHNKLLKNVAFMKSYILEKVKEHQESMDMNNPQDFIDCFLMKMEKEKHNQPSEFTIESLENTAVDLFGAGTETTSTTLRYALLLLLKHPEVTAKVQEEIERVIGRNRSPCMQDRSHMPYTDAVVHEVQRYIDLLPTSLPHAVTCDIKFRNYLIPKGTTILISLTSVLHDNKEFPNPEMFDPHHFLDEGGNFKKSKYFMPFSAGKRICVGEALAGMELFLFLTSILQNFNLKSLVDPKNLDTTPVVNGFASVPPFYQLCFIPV

[4] = Metabolic stability assay in human liver microsomes in the presence of specific cytochrome P450 inhibitors (arm without inhibitor, summary statements)
[5] = target: T2, CYP 2C19 (Homo sapiens, UniProt P33261); assay: Metabolic stability in human liver microsomes with CYP 2C19 inhibitor Nootkatone; type: in vitro ADME; settings: 1 μM + Nootkatone (20 μM)
T2 construct: The experiment was conducted in human liver microsomes; from tissue; host or cells: human liver microsomes
T2 sequence (P33261 whole entry): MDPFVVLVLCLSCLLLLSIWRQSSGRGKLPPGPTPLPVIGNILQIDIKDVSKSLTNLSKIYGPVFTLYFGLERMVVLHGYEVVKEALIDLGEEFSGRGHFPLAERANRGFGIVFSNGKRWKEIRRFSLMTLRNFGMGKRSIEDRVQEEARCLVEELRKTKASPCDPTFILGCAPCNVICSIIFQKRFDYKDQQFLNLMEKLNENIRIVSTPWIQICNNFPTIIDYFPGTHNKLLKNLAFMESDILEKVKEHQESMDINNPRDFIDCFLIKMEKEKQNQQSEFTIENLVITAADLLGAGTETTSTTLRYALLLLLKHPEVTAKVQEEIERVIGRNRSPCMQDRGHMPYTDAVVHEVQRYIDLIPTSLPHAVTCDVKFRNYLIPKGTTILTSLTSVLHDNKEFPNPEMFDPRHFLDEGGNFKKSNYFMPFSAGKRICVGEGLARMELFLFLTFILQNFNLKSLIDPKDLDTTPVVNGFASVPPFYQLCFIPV

[6] = human liver microsomes, 1 μM, no inhibitor
[7] = human, human liver microsomes, pH 7.4

O=C1Nc2ccccc2N(C(=O)CCl)c2ccc(F)cc21 [Compound 6, 5-(2-chloroacetyl)-2-fluoro-5,10-dihydro-11H-dibenzo[b,e][1,4]diazepin-11-one]
solubility at 90 min [1]: > 200 µM | stability / metabolism by liver microsomes (in words) [2]: medium to highly stability | % rem @ 5 min ([2]; human): 93.5% | % rem @ 15 min ([2]; human): 92.9% | % rem @ 30 min ([2]; human): 91.3% | % rem @ 45 min ([2]; human): 67.8% | half-life at 1 µM ([2]; human): 1.6 h | microsomal CLint at 1 μM ([2]; human): 14.4 µL/min/mg | % rem @ 5 min ([2]; mouse): ~100% | % rem @ 15 min ([2]; mouse): ~100% | % rem @ 30 min ([2]; mouse): 79.3% | % rem @ 45 min ([2]; mouse): 59.8% | half-life at 1 µM ([2]; mouse): 0.95 h | microsomal CLint at 1 μM ([2]; mouse): 24.3 µL/min/mg | % rem @ 5 min ([2]; rat): 98.7% | % rem @ 15 min ([2]; rat): 83.1% | % rem @ 30 min ([2]; rat): 75.3% | % rem @ 45 min ([2]; rat): 74.0% | half-life at 1 µM ([2]; rat): 1.58 h | microsomal CLint at 1 μM ([2]; rat): 14.6 µL/min/mg | % rem @ 5 min [3]: 69.7% | % rem @ 15 min [3]: 63.3% | % rem @ 30 min [3]: 73.8% | % rem @ 45 min [3]: 54.3% | half-life at 1 µM ([3]; pH 7.4, with Sulfaphenazole 20 μM): 1.28 h | microsomal CLint at 1 μM ([3]; pH 7.4, with Sulfaphenazole 20 μM, read-out: mCLint): 18 µL/min/mg | stability in human liver microsomes (in words) ([4]; human liver microsomes): medium to highly stability | degradation ([4]; human liver microsomes, in presence of specific CYP inhibitors): 40-45% | % rem @ 5 min [4, 6]: 93.5% | % rem @ 15 min [4, 6]: 92.9% | % rem @ 30 min [4, 6]: 91.3% | % rem @ 45 min [4, 6]: 67.8% | half-life at 1 µM [4, 7]: 1.6 h | microsomal CLint at 1 μM [4, 7]: 14.4 µL/min/mg | degradation ([4]; incubated in human liver microsomes, no inhibitor): ~35% | % rem @ 5 min [5]: ~100% | % rem @ 15 min [5]: 98.6% | % rem @ 30 min [5]: 84.6% | % rem @ 45 min [5]: 58.7% | half-life at 1 µM ([5]; pH 7.4, with Nootkatone 20 μM): 0.91 h | microsomal CLint at 1 μM ([5]; pH 7.4, with Nootkatone 20 μM, read-out: mCLint): 25.4 µL/min/mg
